Measurements from patent publication US7148232B2, “Oxazolo, thiazolo and selenazolo [4,5-c]-quinolin-4-amines and analogs thereof” (3M Innovative Properties Company, priority 1998, dated 2006).

What was measured:
[1] = system: interferon (α); experiment: Cytokine induction in human cells: interferon (α) secreted by PBMCs (ELISA or bioassay); assay type: cell-based; conditions: 18 to 24 hours
Protocol: (§1) An in vitro human blood cell system was used to assess cytokine induction by compounds of the invention.
(§2) Whole blood is collected by venipuncture into EDTA vacutainer tubes from healthy human donors. […] The PBMC suspension is added to 48 well flat bottom sterile tissue culture plates (Costar, Cambridge, Mass. or Becton Dickinson Labware, Lincoln Park, N.J.) containing an equal volume of RPMI complete media containing test compound.
(§3) The compounds are solubilized in dimethyl sulfoxide (DMSO). The DMSO concentration should not exceed a final concentration of 1% for addition to the culture wells.
(§4) The solution of test compound is added at 60 μM to the first well containing RPMI complete and serial 3 fold dilutions are made. The PBMC suspension is then added to the wells in an equal volume, bringing the test compound concentrations to the desired range (0.12 to 30 μM). The final concentration of PBMC suspension is 1.5–2×10^6 cells/mL. The plates are covered with sterile plastic lids, mixed gently and then incubated for 18 to 24 hours at 37° C. in a 5% carbon dioxide atmosphere.
(§5) Following incubation the plates are centrifuged for 5–10 minutes at 1000 rpm (˜200×g) at 4° C. The cell culture supernatant is removed with a sterile polypropylene pipet and transferred to sterile polypropylene tubes. Samples are maintained at −30 to −70° C. until analysis. The samples are analyzed for interferon (α) by either ELISA or bioassay and for tumor necrosis factor (α) by ELISA
Interferon is determined by bioassay using A549 human lung carcinoma cells challenged with encephalomyocarditis. […] Briefly stated the method is as follows: A549 cells are incubated with dilutions of samples or a standard interferon at 37° C. for 24 hours. The incubated cells are then infected with an inoculum of encephalomyocarditis virus. The infected cells are incubated for an additional 24 hours at 37° C. before evaluating for viral cytopathic effect. The viral cytopathic effect is quantified by staining with crystal violet followed by visual scoring of the plates. Results are expressed as alpha reference units/mL based on the value obtained for NIH Human Leukocyte IFN standard.
Interferon (α) concentration is determined by ELISA using a Human Multi-Species kit from PBL Biomedical Laboratories, New Brunswick, N.J. according to the manufacturer's instructions.

[2] = system: tumor necrosis factor (α); experiment: Cytokine induction in human cells: tumor necrosis factor (α) secreted by PBMCs (ELISA); assay type: cell-based; conditions: 18 to 24 hours
Protocol: as §1, §2, §3, §4, §5
Tumor necrosis factor (α) (TNF) concentration is determined using ELISA kits available from Genzyme, Cambridge, Mass.; R&D Systems, Minneapolis, Minn.; or Pharmingen, San Diego, Calif. according to the manufacturer's instructions.

[3] = system: interferon (α); experiment: Interferon (α) induction in human cells (in vitro human blood cell system, interferon by bioassay); assay type: cell-based; conditions: human PBM's, 48 hours

Compound	Interferon (α) Induction ([1]; Dose Concentration 0.12 μM)	Interferon (α) Induction ([1]; Dose Concentration 0.37 μM)	Interferon (α) Induction ([1]; Dose Concentration 1.11 μM)	Interferon (α) Induction ([1]; Dose Concentration 3.33 μM)	Interferon (α) Induction ([1]; Dose Concentration 10 μM)	Interferon (α) Induction ([1]; Dose Concentration 30 μM)	Tumor Necrosis Factor Induction ([2]; Dose Concentration 0.12 μM)	Tumor Necrosis Factor Induction ([2]; Dose Concentration 0.37 μM)	Tumor Necrosis Factor Induction ([2]; Dose Concentration 1.11 μM)	Tumor Necrosis Factor Induction ([2]; Dose Concentration 3.33 μM)	Tumor Necrosis Factor Induction ([2]; Dose Concentration 10 μM)	Tumor Necrosis Factor Induction ([2]; Dose Concentration 30 μM)	melting point [°C]	Interferon (α) Induction in Human Cells ([3]; Dose Concentration 0.01 μg/mL)	Interferon (α) Induction in Human Cells ([3]; Dose Concentration 0.05 μg/mL)	Interferon (α) Induction in Human Cells ([3]; Dose Concentration 0.10 μg/mL)	Interferon (α) Induction in Human Cells ([3]; Dose Concentration 0.50 μg/mL)	Interferon (α) Induction in Human Cells ([3]; Dose Concentration 1.0 μg/mL)	Interferon (α) Induction in Human Cells ([3]; Dose Concentration 5.0 μg/mL)	other results
CCCc1nc2c(N)nc3ccc(N)cc3c2s1 [Example 42, 2-Propylthiazolo[4,5-c]quinolin-4,8-diamine]	−	−	−	−	+	−	−	−	+	+	+	+	190 to 192	−	−	−	+	+	+	
CCCc1nc2c(N)nc3cc(OC)ccc3c2s1 [Example 64, 7-Methoxy-2-propylthiazolo[4,5-c]quinolin-4-amine]	−	+	+	+	+	+	+	+	+	+	+	+	152 to 154							
CCCc1nc2c(N)nc3cccnc3c2s1 [Example 60, 2-Propylthiazolo[4,5-c][1,5]naphthyridin-4-amine]	−	−	−	−	−	−	−	±	+	+	+	+	135 to 136							
CC(C)c1nc2c(N)nc3ccccc3c2s1 [Example 20, 2-(1-Methyethyl)thiazolo[4,5-c]quinolin-4-amine]	−	−	+	−	−	−	−	−	−	+	+	+	163 to 165	−	−	−	−	−	+	Interferon (α) Induction in Human Cells ([3]; Dose Concentration 10.0 μg/mL): +; Interferon (α) Induction in Human Cells ([3]; Dose Concentration 25.0 μg/mL): +; Interferon (α) Induction in Human Cells ([3]; Dose Concentration 50.0 μg/mL): +
Nc1nc2ccccc2c2sc(CCc3ccccc3)nc12 [Example 24, 2-(2-Phenyl-1-ethyl)thiazolo[4,5-c]quinolin-4-amine]	−	−	−	−	−	−	−	−	−	−	−	+	158 to 159	−	−	−	−	−	−	Interferon (α) Induction in Human Cells ([3]; Dose Concentration 10.0 μg/mL): +; Interferon (α) Induction in Human Cells ([3]; Dose Concentration 25.0 μg/mL): +; Interferon (α) Induction in Human Cells ([3]; Dose Concentration 50.0 μg/mL): +
CCCc1nc2c(N)nc3cc(Cl)ccc3c2s1 [Example 63, 7-Chloro-2-propylthiazolo[4,5-c]quinolin-4-amine]	−	−	+	+	+	−	+	+	+	+	+	+	159 to 160							
CCCCc1nc2c(N)nc3cccnc3c2s1 [Example 58, 2-Butylthiazolo[4,5-c][1,5]naphthyridin-4-amine]	−	−	−	−	±	±	−	+	+	+	+	+	136 to 138							
